Measurements published in BindingDB's records for patent US10562890 (University of Virginia Patent Foundation, 2020).
pIC50: −log10 of the molar value.

Molecular target: T1, Core-binding factor subunit beta (Homo sapiens, UniProt Q13951)
T1 sequence (Q13951 whole entry): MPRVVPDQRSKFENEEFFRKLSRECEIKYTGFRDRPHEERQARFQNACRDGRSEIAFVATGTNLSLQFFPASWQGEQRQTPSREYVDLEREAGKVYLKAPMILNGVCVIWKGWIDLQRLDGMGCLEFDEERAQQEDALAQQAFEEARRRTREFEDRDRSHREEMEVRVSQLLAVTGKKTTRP
Assay: Fluorescence Resonance Energy Transfer (FRET) Assay
From the text: FRET assay can be used to effectively monitor the inhibition of CBF binding to the Runt domain of RUNX proteins (as well as for CBFβ-SMMHC binding to the Runt domain of RUNX proteins). For the assay, the green fluorescent protein derivative Cerulean is fused to the N-terminus of the Runt domain and the green fluorescent protein derivative Venus to the N-terminus of CBFβ.

Row | pIC50 | SMILES
1 | 5.58 | FC(F)(F)Oc1ccc2[nH]c(-c3ccc(OCCN4CCN(Cc5ccccc5)CC4)cn3)nc2c1 [US10562890, Compound Al-14-95]
2 | 5.67 | COc1cc(OCCN2CCN(Cc3ccccc3)CC2)cnc1-c1nc2cc(OC(F)(F)F)ccc2[nH]1 [US10562890, Compound Al-14-100]
